Laboratory results as given in US20120014979A1, “USE OF BCL6 INHIBITORS FOR TREATING AUTOIMMUNE DISEASES” (priority 2010, published 2012).

Tested on: individual with symptoms indicative of lupus
Assay: Treatment of Lupus Erythematosus in an individual (Example 2)
Type: in vivo, human
Method: The individual is a person with symptoms including chronic fever, malaise, joint pains, myalgias, fatigue, indicative of lupus. The individual has previously been treated, largely unsuccessfully, with cyclophosphamides, corticosteroids and immunosuppressants.
The individual is treated for 1 to 60 days sequentially with BPI-1 administered at a dose of 4 mg/kg daily.

Molecule	results in equivalent or comparable trials with individuals exhibiting similar symptomatology (BCL6 inhibitors other than BPI, compared with BPI-1 treatment of lupus)	amelioration of lupus (severity and frequency of flares and their symptoms) (person, 4 mg/kg daily, 1 to 60 days sequentially)
O=C(O)CC(C(=O)O)N1C(=O)/C(=C2/C(=O)Nc3ccc(Br)cc32)SC1=S (centres unmarked) [79-6]	Equivalent results are obtainable	
NH2-G(RRRQRRKKR)GG(RGIEHAAR)GG(DIM)G(EW)G(NEIF)G(AIA)G(FL)G-OH [BPI-1]		long-lasting amelioration of lupus with a reduction in the severity and frequency of flares and their symptoms
